# Key:
# Mrs2 = biological target: T1, Mrs2 (Mus musculus, UniProt Q5NCE8); test: Mrs2 inhibition in intact hepatocytes loaded with Mag-Green-AM, confocal, L-lactate stimulation; format: cell-based, murine; conditions: 5 μM
# T1 construct: endogenous in cells; host or cells: primary murine hepatocytes (C57BL/6J mice)
# T1 sequence (Q5NCE8 54-434): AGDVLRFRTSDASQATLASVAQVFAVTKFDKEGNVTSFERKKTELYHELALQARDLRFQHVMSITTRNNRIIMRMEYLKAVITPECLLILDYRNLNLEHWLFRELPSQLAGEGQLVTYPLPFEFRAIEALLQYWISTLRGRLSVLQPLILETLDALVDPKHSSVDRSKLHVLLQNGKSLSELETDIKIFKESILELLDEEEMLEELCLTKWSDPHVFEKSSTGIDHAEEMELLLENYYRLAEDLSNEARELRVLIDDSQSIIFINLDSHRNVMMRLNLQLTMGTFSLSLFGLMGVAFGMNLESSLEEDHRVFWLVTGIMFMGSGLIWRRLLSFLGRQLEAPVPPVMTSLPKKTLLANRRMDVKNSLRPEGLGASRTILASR
# Description: Bacterial CorA forms a pentameric complex that selectively drives Mg2+ uptake in an electrogenic manner. […] Mrs2 is the eukaryotic homologue of CorA and contains two transmembrane domains with a well-conserved F/Y-G-M-N motif; therefore, CorA blockers were tested to determine if they alter Mrs2-mediated mMg^2+ uptake (Moomaw and Maguire, 2008). Digitonin permeabilized hepatocytes were utilized to measure the inhibitory effect and determine its IC50. Permeabilized cells were treated with CPACC followed by a 1 mM bolus of MgCl2 (FIG. 10B). A 1 mM Mg^2+ bolus was added after baseline recording, and the extramitochondrial Mg^2+ clearance was used as a read-out for Mrs2-mediated mMg^2+ uptake using Mag-Green as a Mg^2+ indicator. […] We next investigated Mrs2 inhibition in intact hepatocytes loaded with Mag-Green-AM. […] Next CPACC was examined to determine if it had any effect on MCU-mediated mCa^2+ uptake in permeabilized cells. […] The availability of the compound to intact cells was measured using graphite furnace atomic absorption spectroscopy (GFAAS) and bicinchoninic acid in parallel. […] Encouraged by the potent inhibitory effect of CPACC and cellular permeability, we next measured the cytotoxicity of CPACC in cells. […]
# Evaluation of dose dependent Mrs2 inhibition by confocal live cell imaging system. […] Data was quantified using Leica Application Suite X.
# HIF-1α = conditions: cell culture
# Excerpt: HIF-1α is stabilized in Mrs2−/− mice. To examine the intrinsic role of Mrs2, Mrs2^−/− mice were challenged to LPS-induced inflammatory response. It was noticed that there was a barely detectable HIF-1α stabilization in control but a significant HIF-1α protein accumulation following LPS stimulation in Mrs2^−/− hepatocytes (Daw et al., 2020). […] It was envisioned that loss of Mrs2 in hepatocyte mitochondria might control metabolite fluxes that regulates HIF-1α stability under normoxic conditions. HIF-1α is the most commonly studied transcription factor that responds to oxygen tension and its stabilization controls numerous metabolic cascades, including glycolysis and oxidative phosphorylation (Kaelin and Ratcliffe, 2008; Lum et al., 2007; Semenza, 2013). A targeted metabolite screen was conducted to identify whether these metabolites potentially altered in Mrs2^−/− control HIF-1α stabilization. WT hepatocytes were treated with the PHD inhibitor FG-4952 for 6 hours in the presence or absence of metabolites (Buckley et al., 2012). […] Next it was explored whether citric acid mediated HIF-1α destabilization is a hydroxylation dependent mechanism by reconstitution of hydroxylation-dead mutant HIF-1α in COS-7 cells (Yan et al., 2007). […] Next tested the potency of citric acid and sodium citrate was tested. Hepatocytes isolated from WT or Mrs2^−/− mice were treated for 6 hours. HIF-1α stabilization was less affected by di- or tri-sodium citrate than by citric acid (FIG. 9G). […] The citric acid-mediated HIF-1α destabilization was intact in multiple chemical modalities (FIG. 9H) and the intracellular chelation of Mg^2+ ions suppressed FG-4952-induced HIF-1α stabilization (FIG. 9I). […] Furthermore, COS-7 cells were more sensitive to the HIF-1α stabilizing effect compared to hepatocytes. […] Next HIF-1α abundance was tested in liver tissues harvested from dietary cohorts. HIF-1α protein expression/stabilization was prominent in both Mrs2^−/− and Mrs2^−/− WD, whereas HIF-1α protein was nearly completely absent in WT WD (FIG. 9M). This supports the elevation of HIF-1α protein level as a key mechanism driving transcription changes in Mrs2^−/− WD livers.
# Immunoblotting. Crushed tissues were homogenized in lysis buffer (ThermoFisher) on ice for one minute (20-30 strokes) using an automatic Dounce homogenizer set to 2000 RPM. Whole cell lysate was prepared in lysis buffer (Abcam) using 3 sets of 3-second sonication (power level 3) intervals on ice. Protein concentration was estimated using Pierce BCA assay kit and samples were prepared and heated for 90° C. for 5 minutes. Equal amounts of protein were loaded and separated on 4%-12% Bis-Tris polyacrylamide gel (Thermo Fisher Scientific), transferred to a PVDF membrane, blocked for 1-2 h using 5% fat free skim milk, washed and finally, probed with corresponding antibodies as specified below. Antibodies were from Cell Signaling Technology (HIF-1α and Hydroxy HIF-1α dilution 1:3000, MCU dilution 1.5000, MICU1 dilution 1:3000), Abcam Abcam (CPT-1a, CPT-2, OXPHOS cocktail dilution 1:3000), ZYMED Laboratories (β-actin; dilution 1:1,000), and Amersham (secondary antibodies conjugated with peroxidase). Development was done using X-ray film using a series of timed exposures and Image J was used for densitometric analysis on scanned film images.
compound,measurement,setting,value
"[NH2][Co]([NH2])([NH2])([NH2])([NH2])[Cl] [CPACC, chloropentaammine cobalt (III) chloride]",Mitochondrial Mg^2+ uptake following L-lactate stimulation,Mrs2,significantly inhibited
same,HIF-1α stabilization by the compound,HIF-1α,partial stabilization

# From patent publication US20240415878A1, “Compositions and Methods for Modulating Mitochondrial Function” (Board of Regents, The University of Texas System, priority 2021, published 2024)
